Measured values: patent US9045445B2, “Glycine transporter-1 inhibitors, methods of making them, and uses thereof” (Albany Molecular Research, Inc., priority 2010, dated 2015)
Structures can show the parent of a compound that is named as a salt.

target: T1, glycine transporter-1 (GlyT-1) (Homo sapiens, UniProt P48067); assay: [14C]glycine uptake assay in JAR cells endogenously expressing GlyT-1 (scintillation proximity); type: cell-based; conditions: JAR cells, [14C]glycine 5 μM, 3 hour incubation; read-out: GlyT-1 IC50
T1 construct: JAR cells (ATCC#HTB-144), which endogenously express GlyT-1; host or cells: JAR human choriocarcinoma cells
T1 sequence (P48067 1-706): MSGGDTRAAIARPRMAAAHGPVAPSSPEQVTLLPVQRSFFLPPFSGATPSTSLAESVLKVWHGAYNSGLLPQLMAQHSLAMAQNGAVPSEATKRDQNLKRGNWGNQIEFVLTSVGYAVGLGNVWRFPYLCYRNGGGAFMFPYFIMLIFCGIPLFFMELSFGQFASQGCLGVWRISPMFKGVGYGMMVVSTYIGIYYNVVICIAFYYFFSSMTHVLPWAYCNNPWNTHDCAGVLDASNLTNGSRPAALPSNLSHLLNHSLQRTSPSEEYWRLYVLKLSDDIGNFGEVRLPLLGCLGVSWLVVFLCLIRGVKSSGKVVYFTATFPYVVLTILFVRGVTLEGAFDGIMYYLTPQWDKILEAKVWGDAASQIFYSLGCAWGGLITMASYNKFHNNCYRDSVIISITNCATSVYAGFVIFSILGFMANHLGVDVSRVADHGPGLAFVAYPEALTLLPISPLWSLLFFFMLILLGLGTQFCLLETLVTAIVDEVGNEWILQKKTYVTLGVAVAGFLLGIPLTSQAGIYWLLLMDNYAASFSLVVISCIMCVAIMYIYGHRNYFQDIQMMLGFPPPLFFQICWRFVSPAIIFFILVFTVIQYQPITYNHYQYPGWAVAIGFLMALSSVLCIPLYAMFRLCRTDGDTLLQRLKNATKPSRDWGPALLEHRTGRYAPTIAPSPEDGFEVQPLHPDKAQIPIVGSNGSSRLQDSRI
Experimental: The inhibitory activity of compounds of the invention against the glycine transporter-1 (GlyT-1) can be determined by the following scintillation proximity assay. The potency of each compound was assessed in inhibiting the uptake of radiolabeled glycine ([^14C]glycine) using the human choriocarcinoma cell line, JAR cells (ATCC#HTB-144), which endogenously express GlyT-1. In brief, 50,000 JARS cells were plated per well of tissue culture treated 96-well Cytostar-T plate (PerkinElmer) in RPMI media supplemented with 10% heat inactivated FBS and allowed to attach overnight at 37° C. and 5% CO2. Compounds were serially diluted 3-fold in DMSO generating a nine (9) data point response curve for each compound. Two replicates were performed per determination. The compounds were then diluted into Uptake Buffer (10 mM Hepes, 120 mM NaCl, 2 mM KCl, 1 mM CaCl2 and 1 mM MgCl2, 5 mM Alanine, pH 7.4) with a final DMSO concentration of 0.75% (v/v). Following the overnight incubation, the media was replaced with Uptake Buffer in the presence or absence of diluted compound and pre-incubated at room temperature for 10 minutes prior to the addition of [^14C]glycine at a final concentration of 5 μM. Following a 3 hour incubation period at 37° C. and 5% CO2, the plates were sealed and placed at room temperature in the dark for 15 minutes prior to quantification of incorporated radioactivity using a MicroBeta Trilux scintillation plate reader (PerkinElmer). Data were fit into a four-parameter model to determine the inhibitor concentration at half-maximal response (IC50). The assay window was established by control wells incubated with [^14C]glycine in the presence or absence of 10 mM non-labeled glycine. A dose response curve for a synthesized reference standard was generated on every plate as a positive control.

Row | SMILES | IC50
1 | CCCS(=O)(=O)N1CCN(C2(CNC(=O)c3c(F)cccc3F)CCC3(CC3)CC2)CC1 [compound 198, 2,6-Difluoro-N-((6-(4-(propylsulfonyl)piperazin-1-yl)spiro[2.5]octan-6-yl)methyl)benzamide Hydrochloride] | 162 nM
2 | CC(O)CS(=O)(=O)N1CCN(C2(CNC(=O)c3ccc(C(F)(F)F)cc3Cl)CCC(F)(F)CC2)CC1 (single isomer, unassigned; enantiomer b) [compound 279, (Enantiomer B)-2-Chloro-N-((4,4-difluoro-1-(4-(2-hydroxypropylsulfonyl)piperazin-1-yl)cyclohexyl)methyl)-4-(trifluoromethyl) benzamide Hydrochloride] | 68 nM
3 | Cn1cc(S(=O)(=O)N2CCN(C3(CNC(=O)c4c(F)cc(Cl)cc4Cl)CCC(F)(F)CC3)CC2)nn1 [compound 241, 2,4-Dichloro-N-((4,4-difluoro-1-(4-(1-methyl-1H-1,2,3-triazol-4-ylsulfonyl)piperazin-1-yl)cyclohexyl)methyl)-6-fluorobenzamide Hydrochloride] | 1 nM
4 | CCCS(=O)(=O)N1CCN(C2(CNC(=O)c3c(F)cc(F)cc3F)CCC(F)(F)CC2)CC1 [compound 144, N-((4,4-Difluoro-1-(4-(propylsulfonyl)piperazin-1-yl)cyclohexyl)methyl)-2,4,6-trifluorobenzamide Hydrochloride] | 46 nM
5 | CCS(=O)(=O)N1CCN(C2(CNC(=O)c3c(F)ccc(Cl)c3F)CCC(F)(F)CC2)CC1 [compound 213, 3-Chloro-N-((1-(4-(ethylsulfonyl)piperazin-1-yl)-4,4-difluorocyclohexyl)methyl)-2,6-difluorobenzamide Hydrochloride] | 875 nM
6 | CCCS(=O)(=O)N1CCN(C2(CNC(=O)c3c(F)ccc(C(F)(F)F)c3F)CCC(F)(F)CC2)CC1 [compound 262, N-((4,4-Difluoro-1-(4-(propylsulfonyl)piperazin-1-yl)cyclohexyl)methyl)-2,6-difluoro-3-(trifluoromethyl)benzamide Hydrochloride] | 223 nM
7 | CCCS(=O)(=O)N1CCN(C2(CNC(=O)c3c(F)cccc3F)CCCOCC2)CC1 (stereo not drawn) [compound 268, 2,6-Difluoro-N-((4-(4-(propylsulfonyl)piperazin-1-yl)oxepan-4-yl)methyl)benzamide Hydrochloride] | 238 nM
8 | COc1cccc(Cl)c1C(=O)NCC1(N2CCN(S(=O)(=O)c3cn(C)cn3)CC2)CCC(F)(F)CC1 [compound 173, 2-Chloro-N-((4,4-Difluoro-1-(4-(1-methyl-1H-imidazol-4-ylsulfonyl)piperazin-1-yl)cyclohexyl)methyl)-6-methoxybenzamide Hydrochloride] | 2 nM
9 | CCCS(=O)(=O)N1CCN(C2(CNC(=O)c3ccc(OC)cc3)CCCCCC2)CC1 [compound 67, 4-Methoxy-N-((1-(4-(propylsulfonyl)piperazin-1-yl)cycloheptyl)methyl) benzamide Hydrochloride] | 863 nM
10 | COc1ccccc1C(=O)NCC1(N2CCN(S(=O)(=O)c3cn(C)cn3)CC2)CCC(F)(F)CC1 [compound 177, N-((4,4-Difluoro-1-(4-(1-methyl-1H-imidazol-4-ylsulfonyl)piperazin-1-yl)cyclohexyl)methyl)-2-methoxybenzamide Hydrochloride] | 34 nM
11 | Cc1cc(F)c(C(=O)NCC2(N3CCN(S(=O)(=O)c4cn(C)nn4)CC3)CCC(F)(F)CC2)cc1F [compound 239, N-((4,4-Difluoro-1-(4-(1-methyl-1H-1,2,3-triazol-4-ylsulfonyl)piperazin-1-yl)cyclohexyl)methyl)-2,5-difluoro-4-methylbenz-amide Hydrochloride] | 20 nM
12 | CCCS(=O)(=O)N1CCN(C2(CNC(=O)c3ccc(C(F)(F)F)cc3F)CCC(F)(F)CC2)CC1 [compound 150, N-((4,4-Difluoro-1-(4-(propylsulfonyl)piperazin-1-yl)cyclohexyl)methyl)-2-fluoro-4-(trifluoromethyl)benzamide Hydrochloride] | 61 nM
13 | Cn1cc(S(=O)(=O)N2CCN(C3(CNC(=O)c4ccc(C(F)(F)F)cc4C(F)(F)F)CCCC3)CC2)nn1 [compound 275, N-((1-(4-(1-Methyl-1H-1,2,3-triazol-4-ylsulfonyl)piperazin-1-yl)cyclopentyl)methyl)-2,4-bis(trifluoromethyl) benzamide Hydrochloride] | 7 nM
14 | CC(NC(=O)c1ccc(C(F)(F)F)cc1Cl)C1(N2CCN(S(=O)(=O)c3cn(C)nn3)CC2)CCCC1 (stereo not drawn) [compound 282, 2-Chloro-N-(1-(1-(4-(1-methyl-1H-1,2,3-triazol-4-ylsulfonyl)piperazin-1-yl)cyclopentyl)ethyl)-4-(trifluoromethyl)benzamide Hydrochloride] | 29 nM
15 | CCCS(=O)(=O)N1CCN(C2(CNC(=O)c3cc(C(F)(F)F)ccc3C(F)(F)F)CCC(F)(F)CC2)CC1 [compound 248, N-((4,4-Difluoro-1-(4-(propylsulfonyl)piperazin-1-yl)cyclohexyl)methyl)-2,5-bis(trifluoromethyl) benzamide Hydrochloride] | 159 nM
16 | CCC(F)S(=O)(=O)N1CCN(C2(CNC(=O)c3ccc(C(F)(F)F)cc3Cl)CCC(F)(F)CC2)CC1 (stereo not drawn) [compound 244, 2-Chloro-N-((4,4-difluoro-l-(4-(1-fluoropropylsulfonyl)piperazin-1-yl)cyclohexyl)methyl)-4-(trifluoromethyl)benzamide Hydrochloride] | 51 nM
17 | CCCS(=O)(=O)N1CCN(C2(CNC(=O)c3ccc(Cl)c(Cl)c3)CCCC2)CC1 [compound 76, 3,4-Dichloro-N-((1-(4-(propylsulfonyl)piperazin-1-yl)cyclopentyl)methyl) benzamide Hydrochloride] | 1820 nM
18 | CCCS(=O)(=O)N1CCN(C2(CNC(=O)c3c(C)cccc3OC)CCCCC2)CC1 [compound 3, 2-Methoxy-6-methyl-N-((1-(4-(propylsulfonyl)piperazin-1-yl)cyclohexyl)methyl) benzamide Hydrochloride] | 541 nM
19 | CCCS(=O)(=O)N1CCN(C2(CNC(=O)c3c(Cl)cccc3C(F)(F)F)CCC(F)(F)CC2)CC1 [compound 157, 2-Chloro-N-((4,4-difluoro-1-(4-(propylsulfonyl)piperazin-1-yl)cyclohexyl)methyl)-6-(trifluoromethyl)benz-amide Hydrochloride] | 59 nM
20 | Cn1cnc(S(=O)(=O)N2CCN(C3(CNC(=O)c4ccc(Cl)cc4F)CCC(F)(F)CC3)CC2)c1 [compound 165, 4-Chloro-N-((4,4-difluoro-1-(4-(1-methyl-1H-imidazol-4-ylsulfonyl)piperazin-1-yl)cyclohexyl)methyl)-2-fluorobenzamide Hydrochloride] | 29 nM
21 | CCS(=O)(=O)N1CCN(C2(CNC(=O)c3c(F)cc(OC)cc3F)CCC(F)(F)CC2)CC1 [compound 216, N-((1-(4-(Ethylsulfonyl)piperazin-1-yl)-4,4-difluorocyclohexyl)methyl)-2,6-difluoro-4-methoxybenzamide Hydrochloride] | 1290 nM
22 | CCCS(=O)(=O)N1CCN(C2(CNC(=O)c3ccc(Cl)c(Cl)c3)CCCCC2)CC1 [compound 26, 3,4-Dichloro-N-((1-(4-(propylsulfonyl)piperazin-1-yl)cyclohexyl)methyl) benzamide Hydrochloride] | 245 nM
23 | Cn1cnc(S(=O)(=O)N2CCN(C3(CNC(=O)c4c(Cl)cccc4OC(F)(F)F)CCC(F)(F)CC3)CC2)c1 [compound 187, 2-Chloro-N-((4,4-difluoro-1-(4-(1-methyl-1H-imidazol-4-ylsulfonyl)piperazin-1-yl)cyclohexyl)methyl)-6-(trifluoromethoxy) benzamide Hydrochloride] | 1 nM
24 | Cn1cc(S(=O)(=O)N2CCN(C3(CNC(=O)c4ccc(C(F)(F)F)cc4C(F)(F)F)CCOCC3)CC2)nn1 [compound 276, N-((4-(4-(1-Methyl-1H-1,2,3-triazol-4-ylsulfonyl)piperazin-1-yl)tetrahydro-2H-pyran-4-yl)methyl)-2,4-bis(trifluoromethyl) benzamide Hydrochloride] | 7 nM
